According to patent US5681739A:

How the values were obtained:
soil cultures = assay type: cell-based; conditions: soil cultures of Example 6 after 32 hours of growth
[1] = pH, Eh and total chromium of soil cultures after growth; assay type: physicochemical; conditions: cell-free supernatants, after 32 hours of growth
Protocol: Immediately after collection in sterile containers, the soil samples were stored at 4° C. for 30 days before use. Soil dilutions (10^-1 g/mL) were made in sterile isotonic phosphate buffer. One mL of each soil dilution was inoculated into 165 mL sealed serum vials containing 50 mL of TSB with N2 in the headspace. The serum vials and their contents were sterilized prior to inoculation.
Cr(VI) was added to the culture broth as K2 CrO4 to a final concentration of about 20 mg/L of Cr(VI). Cultures were incubated, at 30° C. on a gyratory shaker at 100 rpm, in an inverted position to limit gas leakage. Samples were analyzed periodically for Cr(VI) concentration and cell density.
After 32 hours of growth, pH, Eh, and total chromium levels of the cultures of Example 6 were determined. The initial pH of TSB was 7.04. Eh was measured with a platinum electrode (Microelectrodes, Inc., Londonderry, N.H.) using an ACCUMET 50 digital pH meter (Fisher Scientific, Pittsburgh, Pa.). Total chromium was analyzed with inductively coupled plasma emission spectroscopy (Model 3410, ARL) of clarified cultures.

[Cr+3] [Cr(III)]
bacterial growth inhibition related to Cr(III) (soil cultures): no evidence of Cr(III) precipitating out of solution or bacterial growth inhibition related to Cr(III) | Cr(III) precipitation out of solution [1]: no evidence of Cr(III) precipitating out of solution
